In patent US10208007B2, “Use of strigolactones and strigolactone analogs for treating proliferative conditions” (The State of Israel, Ministry of Agriculture & Rural …, priority 2011, dated 2019):

Columns and labels:
DU145 = test: XTT viability assay; assay type: cell-based, human; conditions: DU145, 3 days
Protocol: (§1) Viability was assayed after 3 days (XTT, ATCC). IC50 concentrations are indicated (Table 3 above).

HCT116 = test: XTT viability assay; assay type: cell-based, human; conditions: HCT116, 3 days
Protocol: as §1

HT-29 = test: XTT viability assay; assay type: cell-based, human; conditions: HT-29, 3 days
Protocol: as §1

K562 = test: XTT viability assay; assay type: cell-based, human; conditions: K562, 3 days
Protocol: as §1

LNCaP = test: XTT viability assay; assay type: cell-based, human; conditions: 3 days
Protocol: as §1

MCF-7 = test: XTT viability assay; assay type: cell-based, human; conditions: MCF-7, 3 days
Protocol: as §1

MDA-MB-231 = test: XTT viability assay; assay type: cell-based, human; conditions: MDA-MB-231, 3 days
Protocol: as §1

MDA-MB-436 = test: XTT viability assay; assay type: cell-based, human; conditions: MDA-MB-436, 3 days
Protocol: as §1

PC3 = test: XTT viability assay; assay type: cell-based, human; conditions: PC3, 3 days
Protocol: as §1

SW480 = test: XTT viability assay; assay type: cell-based, human; conditions: SW480, 3 days
Protocol: as §1

T47D = test: XTT viability assay; assay type: cell-based, human; conditions: 3 days
Protocol: as §1

U20S = test: XTT viability assay; assay type: cell-based, human; conditions: 3 days
Protocol: as §1

[1] = system: cancer derived cell lines; test: XTT viability assay, all cell lines tested; assay type: cell-based, human; conditions: span over the cell lines
Protocol: MCF-10A cells were used as non-tumorigenic line and various cell lines derived from other types of solid tumors were compiled including colon (HCT116, HT29, SW480), prostate (PC3, DU145, LNCaP), lung (A549), osteosarcoma (U20S) and Melanoma (T11) cell lines. A non-adherent leukemic cancer cell line, K562, was also included to further diversify the cohort (FIG. 7).
as §1

HCT116 cells = test: Annexin V / PI staining; assay type: cell-based, human; conditions: 48 hours, from 3.6%
Protocol: Cells were cultured for 48 hours under the same conditions as those used for the DNA content/cell cycle analysis. All the cells were collected and resuspended in 100 μl 1× Annexin V Binding Buffer (BD Biosciences, San Jose, Calif., USA). 2 μl FITC-Annexin V (BD Biosciences) was added and incubated for 10 min in the dark (room temperature). Cells were then stained with PI (Sigma, Saint Louis, Mo., USA) to a final concentration of 5 μg/ml and the cells were incubated at room temperature for 15 min in the dark. Then, 400 μl of Annexin V binding buffer were added and flow cytometry was performed using a BD FACSCalibur flow cytometer. Cells were considered to be apoptotic if they were Annexin V+/PI− (early apoptotic) and Annexin V+/PI+ (late apoptotic). Each analysis was performed using at least 20,000 events.
Chromosome condensation at mitosis is accompanied by phosphorylation of histone H3. Accordingly, in order to determine if cells were arresting at G2 or M phase, HCT116 cells were analyzed for pS10 Histone H3 following strigolactone analogs exposure. […] To further quantify whether the growth inhibition observed in-vitro following strigolactone treatment was due in part to apoptosis, HCT116 cells were dual stained with Annexin V and PI (Prodidium Iodide). Annexin V staining indicate the inversion of the inner leaflet of the plasma membrane an early event of apoptosis. Late apoptosis is characterized by loss of membrane integrity and cells become permeable to PI. […] Cells were incubated for 48 hours and then co-stained with annexin-V and PI (FIG. 12F). Following treatment with 10 ppm and 15 ppm MEB-55, the percentage of late apoptotic cell increased from 3.6% to 62% and 85% respectively (FIG. 12F, lower panel). […] Dual Annexin V/PI staining analysis was also carried out on two other colon cancer cell lines, (SW480, HT29) following strigolactone treatment. Increased apoptosis was also observed in these lines following MEB-55 treatment in a dose dependent manner (FIG. 12D).

MCF-7 mammospheres [2] = test: Mammosphere formation; assay type: cell-based, human; conditions: 5 ppm and above
Protocol: Adherent cells were gently trypsinized, (0.05% trypsin/EDTA) washed twice in PBS and filtered through a […] cell sieve to obtain a single cell suspensions. Cells were diluted to a concentration of 10,000 cell/ml in serum-free phenol-red free MEBM (MEGM Bulletkit, Lonza) supplemented with 5 μg/ml bovine insulin, 20 ng/ml recombinant epidermal growth factor, 20 ng/ml basic fibroblast growth factor (Gibco), 1×B27 supplement, 0.5 μg/ml hydrocortisone (MEGM Bulletkit, Lonza). For MDA-MB-231 mammosphere cultures serum-free phenol red-free CnT-27 medium with growth additives (CellnTEC Advanced cell systems, Bern, Switzerland) was used as previously described. 0.1 ml was seeded per well of a Ultralow attachment 96 well plates. The following day the indicated doses of GR-24 (ppm) or vehicle alone (0.6% acetone f/c) were added. Media was replenished every 3-4 days. Self-renewal capacity of the mammospheres was determined by re-plating and producing further generations of mammospheres. Secondary mammospheres were cultivated by dissociation (trypsinization with gently vortexing) of 10-14 day old primary mammospheres. Single cell suspensions were obtained as described above.
(§2) Given the similar effects the other strigolactone analogs had on breast cancer cell line growth compared to GR-24, we anticipated that the strigolactone analogs would also have similar effects on MCF-7 primary mammosphere formation (FIG. 10): MCF-7 cells were seeded in MEBM media into low attachment, 96 well plates in duplicate at 3000 cells per well. The same day the indicated doses of strigolactone analogs were added. After 7 days representative images were taken. […] Like GR-24, the doses required to inhibit mammosphere formation are lower than that required to inhibit proliferation in monolayer cultures (5 fold lower; ST-362 and MEB-55, 3 fold lower; ST-357). To determine if the sensitivity to strigolactone analogs treatments was specific to mammosphere formation or whether it extended to the integrity and survival of mature mammospheres, MCF-7 mammospheres were grown in the absence of strigolactone analogs and after 7 days (or once mammospheres had reached a mean diameter of over […]), strigolactone analogs were added to the growth media (FIG. 10) at the indicated doses. MCF-7 cells were seeded in MEBM media into low attachment, 96 well plates in duplicate at 3000 cells per well and primary mammospheres left to grow for 7 days. At which time the indicated doses of strigolactone analogs were added to the media. FIG. 11A is a representative image of mammospheres treated with 5 ppm concentrations, showing dissociation after 2 days of exposure to strigolactone analogs. […] Following […] treatment, mammospheres were monitored visually after 24 and 48 hours. No changes were observed following 24 hours of strigolactone analogs treatment. […] At 5 ppm concentrations EG-5, EG-9C, ST-357, ST-362 and MEB-55 reduce mammosphere numbers from 86.7+6.8 (vehicle control) to 23+5, 38+6.2, 6+2, 8.3+3.5 and 9.3+1.5%, respectively. At 2.5 ppm concentrations, mammosphere numbers were reduced to 35+6.9 (EG-5), 52+12.3 (EG-9C), 22+8.5 (ST-357), 6+1.7 (ST-362) and 20.7+8.6 (MEB-55). […] XTT viability assays were also carried out on dissociated mammospheres. At concentrations of 5 ppm, EG-5, ST-362 and MEB-55 reduced viability to 3.7+0.5, 25.5+8.8 and 4.6+1.1% respectively.

MCF-7 mammospheres [3] = test: cells; assay type: cell-based, human; conditions: for Mammosphere numbers (>100 μM), percentage of vehicle treated control: 5 days
Protocol: as §2

MCF10A = conditions: 3 days
Protocol: Results are presented as Average±SD of replicate analyses and are either representative of, or inclusive of at least two independent experiments. Statistical analyses were performed using student's t-test (2-tailed, paired) versus vehicle controls and are regarded as being significant when P<0.05(*). Higher powers (p<0.01, p<0.001) are also employed and indicated in each figure legend. IC50 doses for strigolactone analogs were calculated by interpolation of the sigmoidal dose response curves (Graphpad Prism 4.0 software). Briefly, linear regression was performed between relevant y-axis data points and interpolation calculated for x-axis unknowns.
Cells were seeded into a 96 well plates at 1500 cells per well (MCF-10, PC3, DU145, MDA-MB-231, MDA-MB-436, HT-29, SW480), 1000 cells per well (K562) or 4000 cells per well (MCF-7, HCT116) in triplicate in normal growing media (with the exception of K562, a non-adherent leukemic cell line which was seeded in phenol-free DMEM supplemented with 10% charcoal-stripped FBS). The following day media was replaced with phenol-free DMEM supplemented with 10% charcoal stripped FBS and the indicated final concentrations of strigolactone analog or vehicle (acetone) alone. Cells were incubated for 3 days, at which time XTT (2,3,-bis(2-methoxy-4-nitro-5-sulfophenyl)-5-[(phenylamino)-carbonyl]-2H-tetrazolium inner salt) reduction was used to quantify viability according to manufacturer's instruction (ATCC). Cells were incubated with XTT reagent for 2-3 hours at 37° C. in a humidified 5% CO2-95% air atmosphere. Absorbance was recorded by a photometer [sequence]luor Plus, Tecan (Salzburg, Austria) at 450 nm with 750 nm of reference wavelength. Cell survival was estimated from the equation: % cell survival=100×(At−Ac), where At and Ac are the absorbencies (450 nm) of the XTT colorimetric reaction (ATCC) in treated and control cultures respectively minus non-specific absorption measured at 750 nm. Absorbance of medium alone was also deducted from specific readings.
MCF-10A cells were included as an example of a non-tumorigenic line. XTT viability assays were carried out in the presence of the indicated doses of strigolactone analogs following 3 days of treatment. Resulting differences in absorbance readings following strigolactone analogs treatment reflect changes in proliferation and cell survival (FIG. 7A-C): Cells were seeded into 96 well plates in normal growing media. The following day media was replaced with phenol-free DMEM supplemented with 10% charcoal-stripped serum and the indicated doses of strigolactone analog or vehicle (cont.) alone. Viability was assayed after 3 days (XTT, ATCC).

MDA-231 cells = test: Combination with cisplatin, Combination Index (Chou and Talalay); assay type: cell-based, human; conditions: cisplatin line of Table 8
Protocol: To determine if these concentrations of ST-362 can enhance the efficacy of low doses of cisplatin, MDA-231 cells were treated with varying concentrations of cisplatin in the presence of ST-362 IC50 and IC20 concentrations. The combination of ST-362 with low doses of cisplatin ranging for 0.01 to 0.1 μM produced a greater effect than each of the drugs alone (FIG. 20).

P38 = test: Immunoblot of HSP27 phosphorylation with P38 inhibitor; assay type: cell-based, human; conditions: MDA-231 cells, 2 μM and 10 μM, 1 hour pretreatment

With `CC1=CC(O/C=C2\Cc3c(n(C)c4ccc(-c5ccc(N(C)C)cc5)cc34)C2=O)OC1=O` (racemic) [EG-9c, (±) (2E)-4-methyl-2-(4-methyl-5-oxo-2,5-dihydrofuran-2-yloxymethylene)-7-[(4-dimethylamino)-phenyl]-1,4-dihydro-2H-cyclopenta[b]indol-3-one] the “IC50 at 72 h” value (DU145) was 15 ppm, the “IC50 at 72 h” value (HCT116) was over 15 ppm and the “IC50 at 72 h” value (HT-29) was over 15 ppm. For the same molecule, the “IC50 at 72 h” value (K562) was over 15 ppm, the “IC50 at 72 h” value (LNCaP) was over 20 ppm and the “IC50 at 72 h” value (MCF-7) was 17.3 ppm. The “IC50 at 72 h” value (MDA-MB-231) was over 10 ppm, the “IC50 at 72 h” value (MDA-MB-436) was over 10 ppm and the “IC50 at 72 h” value (PC3) was over 15 ppm. For the same molecule, the “IC50 at 72 h” value (SW480) was over 15 ppm, the “IC50 at 72 h” value (T47D) was over 10 ppm and the “IC50 at 72 h” value (U20S) was 4.5 ppm. For the same molecule, the “IC50 concentration over all cell lines tested” value [1] was 10-15 ppm, the “Percentage of late apoptotic cells (Annexin V+/PI+)” value (HCT116 cells; 10 ppm) was 12.5% and the “Percentage of late apoptotic cells (Annexin V+/PI+)” value (HCT116 cells; 15 ppm) was 43.3%. For the same molecule, the Mammosphere formation (MCF-7 mammospheres [2]) was “completely block mammosphere formation”, the Mammosphere morphology (MCF-7 mammospheres [3]; 2.5-5 ppm, after 48 hours) was “less dramatic morphological change” and the “Mammosphere numbers (>100 μM), percentage of vehicle treated control” value (MCF-7 mammospheres [3]; 2.5 ppm) was 52+12.3%. The “Mammosphere numbers (>100 μM), percentage of vehicle treated control” value (MCF-7 mammospheres [3]; 5 ppm, vehicle control 86.7+6.8) was 38+6.2% and the “IC50 at 72 h” value (MCF10A) was over 15 ppm.

`N.N.[Cl][Pt][Cl]` [Cisplatin, cisplatin] gave a CI (MDA-231 cells) of 0.8.

With `C[S+]([O-])c1ccc(-c2nc(-c3ccncc3)c(-c3ccc(F)cc3)[nH]2)cc1` (stereo not shown) [SB203580] the “HSP27 phosphorylation induced by ST-362 and MEB-55” value (P38) was “sufficient to inhibit HSP27 phosphorylation”.
